“Also recorded” adds a separate entry of the source. Where two headings read alike, the source gives them in different places.
Legend:
[1] = biological target: T1, Aβ pathological aggregates present in the human AD insoluble fractions (Homo sapiens, UniProt P05067); assay: Radio-binding competition assay on human AD insoluble fraction; conditions: for Ki: radioligand [3H] Example 47 of WO2017/153601 at 7 nM
T1 construct: "4.7 g of frontal lobe tissue from post-mortem brain of one Alzheimer's disease (AD) patient"
T1 sequence (P05067 whole entry): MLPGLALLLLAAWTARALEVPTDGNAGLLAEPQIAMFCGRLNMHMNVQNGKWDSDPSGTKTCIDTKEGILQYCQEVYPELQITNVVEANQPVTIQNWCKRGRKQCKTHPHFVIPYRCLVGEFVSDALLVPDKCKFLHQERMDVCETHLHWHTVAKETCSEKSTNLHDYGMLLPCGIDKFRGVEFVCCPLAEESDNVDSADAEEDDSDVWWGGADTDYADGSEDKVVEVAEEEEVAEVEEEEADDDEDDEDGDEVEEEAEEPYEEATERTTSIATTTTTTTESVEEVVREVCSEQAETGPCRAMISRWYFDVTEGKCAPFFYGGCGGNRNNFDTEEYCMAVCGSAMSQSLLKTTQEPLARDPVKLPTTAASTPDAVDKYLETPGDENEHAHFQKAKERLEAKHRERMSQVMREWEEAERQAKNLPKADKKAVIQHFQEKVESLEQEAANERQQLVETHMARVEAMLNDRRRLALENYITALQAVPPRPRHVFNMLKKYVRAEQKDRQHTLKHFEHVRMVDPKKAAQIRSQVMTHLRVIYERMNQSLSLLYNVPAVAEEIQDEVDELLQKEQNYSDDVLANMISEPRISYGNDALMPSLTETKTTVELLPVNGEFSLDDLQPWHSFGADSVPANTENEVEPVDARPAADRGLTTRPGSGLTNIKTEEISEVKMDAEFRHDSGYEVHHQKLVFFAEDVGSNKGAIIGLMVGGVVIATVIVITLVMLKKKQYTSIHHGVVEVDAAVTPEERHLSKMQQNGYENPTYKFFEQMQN
Method: 4.7 g of frontal lobe tissue from post-mortem brain of one Alzheimer's disease (AD) patient were purchased from an external provider (Tissue Solutions Ltd., UK). The patient was a […] and died […]. The brain sample was collected 7.7 hours post-mortem and characterized for Braak disease stage (Braak, H.; Braak, E. Acta Neuropathol., 1991, 82, 239-259) as stage VI. For the preparation of the insoluble fractions, around 3 g of the AD human brain was thawed on ice and homogenized with 8.9 mL of homogenization buffer (0.75 M NaCl, 5 mM EDTA, 50 mM Tris-HCl, pH 7.5) supplemented with protease inhibitors (Complete; Roche 11697498001) in a glass Dounce homogenizer. The homogenization was performed at 4° C. The homogenate was transferred into polycarbonate centrifuge tubes (16×76 mm; Beckman 355603) and centrifuged at 100,000 g (38,000 RPM) in an ultracentrifuge (Beckman, XL100K) for 60 min at 4° C. using the pre-cooled 70.1 rotor (Beckman, 342184). Supernatants were discarded and pellets were re-suspended in 8.9 mL of homogenization buffer supplemented with 1% Triton X-100 (Sigma 93426) and processed with glass Dounce homogenizer at 4° C. The solution was then transferred into polycarbonate centrifuge bottles (16×76 mm; Beckman 355603) and centrifuged at 100,000 g (38,000 RPM) in an ultracentrifuge (Beckman, XL100K) for 60 min at 4° C. using the 70.1 Ti rotor. The process was repeated one more time (supernatants were discarded and pellets were re-suspended in 8.9 mL of homogenization buffer supplemented with 1% Triton X-100 and 1M sucrose processed with glass Dounce homogenizer at 4° C. The solution was then centrifuged at 100,000 g (38,000 RPM) for 60 min at 4° C. using the 70.1 Ti rotor). Supernatant was discarded and pellet was resuspended in 4 mL of PBS to obtain the insoluble fraction. The material was aliquoted and stored at −80° C. until use.
AD insoluble fractions diluted 1/100 were incubated in the presence of [^3H] Example 47 disclosed in WO2017/153601 used as Aβ reference binder, at a concentration of 7 nM and the example compounds of this invention were prepared at increasing concentrations in the range 0.4 nM to 2 μM for 120 minutes at 25° C. 90 μL of samples in duplicates were then filtered under vacuum on a GF/C filter plate (PerkinElmer 6005174) to trap the Aβ aggregates within the AD insoluble fractions with the bound radio-ligand, and washed five times with Tris 50 mM buffer pH 7-5. The GF/C filters were then vacuum-dried, 50 μL scintillation liquid (Ultimate Gold MB, PerkinElmer) was added in each well, and the filters were analyzed on a Microbeta2 device. Non-specific signal was determined with an excess of un-labeled ligand and specific binding was calculated by subtracting the non-specific signal from the total signal. Competition was calculated as percent, where 0% was defined as the specific binding in the presence of vehicle (0.1% DMSO in 50 mM Tris in 0.9% NaCl, 0.1% BSA) and 100% as the values obtained in the presence of excess cold Example 47 disclosed in WO2017/153601. The Ki values were calculated by nonlinear regression, one site specific binding using Prism V7 (GraphPad). Ki values to AD insoluble fraction were determined in independent experiments. Results of radio-binding competition assay on AD insoluble fraction are shown in Table 9 as measurements C and D. The Kd for the radioligand [^3H] Example 47 disclosed in WO2017/153601 on the AD insoluble fraction in measurements C and D was 8 nM.
Example compounds are ranked based on the measured Ki values to Aβ pathological aggregates present in the AD insoluble fractions.

[2] = biological target: T2, Recombinant human full-length wild-type aSyn fibrils (Homo sapiens, UniProt P37840); assay: Radio-binding competition assay on recombinant aSyn fibrils; conditions: for improvement of Ki value on aSyn fibrils compared to compounds 70 and 71 of WO2017/153601: head-to-head within the same measurement; for binding to aSyn fibrils in comparison to Examples 70 and 71 of WO2017/153601: comparison of Ki values of Table 9; for Kd: read-out: Kd of the radioligand on aSyn fibrils
T2 construct: Recombinant human full-length wild-type aSyn bacterially expressed; purchased rPeptide, US
Method: Recombinant human full-length wild-type aSyn bacterially expressed was obtained from a commercial provider (rPeptide, US). Protein preparation was transferred into polycarbonate centrifuge tubes (8×51 mm; Beckman 355657) and centrifuged at 100,000 g (38,000 rounds per minute, RPM) in an ultracentrifuge (Beckman, XL100K) for 60 min at 4° C. using the pre-cooled 50.4 Ti rotor (Beckman) to pellet any aggregated material. Supernatant was transferred into a sterile, low retention tube at a final concentration of 5 mg/mL and final volume of 0.5 mL in PBS. The protein was placed in a Thermomixer (Eppendorf) and incubated for 7 days at 37° C. with orbital shaking at 1000 rpm to generate aSyn fibrils.
Material containing aSyn fibrils was transferred into polycarbonate centrifuge tubes (8×51 mm; Beckman 355657) and centrifuged at 100,000 g (38,000 RPM) in an ultracentrifuge (Beckman, XL100K) for 60 min at 4° C. using the pre-cooled 50.4 Ti rotor. The supernatant containing still monomeric aSyn was transferred into new tubes and its concentration was determined. The pellet was resuspended with equal volume of PBS and subjected to further rounds of ultracentrifugation until the concentration obtained for the supernatant was below 0.1 mg/mL. The pellet obtained at the last round of ultracentrifugation containing aSyn fibrils was aliquoted and stored at −80° C. until use. Aggregated aSyn was used at a concentration of 1 μM in radiobinding assays.
Determination of the Binding Affinity (Ki) by Radio-Binding Competition Assay Recombinant aSyn fibrils at concentration of 1 μM were incubated with [^3H] Example 69 disclosed in WO2017/153601, used as aSyn reference binder, at concentrations between 25 nM and 35 nM. The example compounds of this invention were incubated at increasing concentrations in the range 0.4 nM to 2 μM for 120 minutes at 25° C. 90 μL of samples in duplicates were then filtered under vacuum on a GF/C filter plate (PerkinElmer 6005174) to trap the aSyn fibrils with the bound radio-ligand, and washed five times with Tris 50 mM buffer pH 7-5. The GF/C filters were then vacuum-dried, 50 μL scintillation liquid (Ultimate Gold MB, PerkinElmer) was added in each well, and the filters were analyzed on a Microbeta2 device. Non-specific signal was determined with an excess of un-labeled ligand and specific binding was calculated by subtracting the non-specific signal from the total signal. Competition was calculated as percent, where 0% was defined as the specific binding in the presence of vehicle (0.1% DMSO in 50 mM Tris in 0.9% NaCl, 0.1% BSA) and 100% as the values obtained in the presence of excess cold Example 69 disclosed in WO2017/153601. All measurements were performed with at least two technical replicates. The K; values were calculated by nonlinear regression, one site specific binding using Prism V7 (GraphPad). Ki values to recombinant aSyn fibrils were determined in independent experiments and two different batches of aSyn fibrils, derived from the same source but different lots of monomeric aSyn. Results of radio-binding competition assay for the example compounds tested in parallel within the same experiment are shown in Table 9 as measurements A and B. Measurement A was performed on one batch of aSyn fibrils; the Kd for the radioligand [^3H] Example 69 disclosed in WO20171153601 for this batch of aSyn fibrils was 32 nM. Measurement B was performed on second batch of aSyn fibrils, the corresponding Kd for the radioligand [^3H] Example 69 disclosed in WO2017/153601 for the second batch of aSyn fibrils was 60 nM.

[3] = measurement C, read-out: Ki on human AD-Insoluble Fraction, measurement C
[4] = measurement A, first batch of aSyn fibrils, radioligand [3H] Example 69 of WO2017/153601 (Kd 32 nM), read-out: Ki on aSyn Fibrils, measurement A
[5] = measurement B, second batch of aSyn fibrils, radioligand [3H] Example 69 of WO2017/153601 (Kd 60 nM), read-out: Ki on aSyn Fibrils, measurement B
[6] = measurement D, read-out: Ki on human AD-Insoluble Fraction, measurement D

SMILES	Ki [1, 3]	Ki [2, 4]	Ki [2, 5]	Ki [1, 6]	binding to aSyn fibrils in comparison to Examples 70 and 71 of WO2017/153601 [2]	also measured
CN1CCN(c2cc3sc(-c4ccc(N5CC[C@@H](F)C5)nc4)nc3cn2)C(=O)C1 [Example 1]	> 500 nM	14.7 nM	31.9 nM			improvement of Ki value on aSyn fibrils compared to compounds 70 and 71 of WO2017/153601 [2]: improved by at least twofold
CN1CCN(c2cc3sc(-c4ccc(N5CC[C@H](F)C5)nc4)nc3cn2)C(=O)C1 [Example 2]	> 500 nM	12.2 nM	31.9 nM	> 500 nM		improvement of Ki value on aSyn fibrils compared to compounds 70 and 71 of WO2017/153601 [2]: improved by at least twofold
CN1CCN(c2cc3sc(-c4ccc(N5CC(F)C5)nc4)nc3cn2)C(=O)C1 [Example 3A]			96.8 nM	> 500 nM	similar	
CNc1ncc(-c2nc3cnc(N4CCN(C)CC4=O)cc3s2)cc1F [Example 3B]	50 to 500 nM	27.8 nM		50 to 500 nM	improved	
CN1CCN(c2cc3sc(-c4cnc(N5CCC5)c(F)c4)nc3cn2)C(=O)C1 [Example 3C]		5.8 nM		> 500 nM	improved; also recorded: considerably greater affinity	
CN1CCN(c2cc3sc(-c4cnc(N5CC[C@@H](F)C5)nc4)nc3cn2)C(=O)C1 [Example 3D]		38.4 nM		> 500 nM	improved	
CN1CCN(c2ncc3nc(-c4ccc(N5CC[C@@H](F)C5)nc4)sc3n2)C(=O)C1 [Example 3]	> 500 nM		28.3 nM	> 500 nM		
CN1CCN(c2ccc3nc(-c4ccc(N5CC[C@@H](F)C5)nc4)sc3n2)C(=O)C1 [Example 4]						improvement of Ki value on aSyn fibrils compared to compounds 70 and 71 of WO2017/153601 [2]: improved by at least twofold
CN1CCN(c2ncc3nc(-c4ccc(N5CC[C@H](F)C5)nc4)sc3n2)C(=O)C1 [Example 4]			52.8 nM	> 500 nM		
CN1CCN(c2ccc3nc(-c4ccc(N5CC[C@@H](F)C5)nc4)sc3n2)C(=O)C1 [Example 5]			41.7 nM	> 500 nM		
CN1CCN(c2ccc3nc(-c4ccc(N5CC[C@H](F)C5)nc4)sc3n2)C(=O)C1 [Example 5]						improvement of Ki value on aSyn fibrils compared to compounds 70 and 71 of WO2017/153601 [2]: improved by at least twofold
CN1CCN(c2ncc3nc(-c4ccc(N5CC(F)C5)nc4)sc3n2)C(=O)C1 [Example 7A]		55.3 nM		> 500 nM	similar	
CN1CCN(c2ncc3nc(-c4ccc(N5CCC[C@@H](F)C5)nc4)sc3n2)C(=O)C1 [Example 7B]		31.3 nM		> 500 nM	improved	
CN1CCN(c2ncc3nc(-c4ccc(N5CCC[C@H](F)C5)nc4)sc3n2)C(=O)C1 [Example 7C]	> 500 nM	34.2 nM		> 500 nM	improved	
CN1CCN(c2ccc3nc(-c4ccc(N5CC[C@@H](F)C5)nc4)sc3c2)C(=O)C1 [Example 70 of WO2017/153601, reference compound]	> 500 nM	39 nM	97.7 nM			
CN1CCN(c2ccc3nc(-c4ccc(N5CC[C@H](F)C5)nc4)sc3c2)C(=O)C1 [Example 71 of WO2017/153601, reference compound]	> 500 nM	46.9 nM	73.7 nM			
[3H]C([3H])([3H])Nc1ccc(-c2ccc3cc(-c4cccnc4)sc3n2)cn1 [[^3H] Example 47 of WO2017/153601, reference compound]						Kd ([1]; measurements C and D, read-out: Kd of the radioligand on the AD insoluble fraction): 8 nM
[3H]C([3H])([3H])N1CCN(c2ccc3nc(-c4ccc(N5CCCC5)nc4)sc3c2)C(=O)C1 [[^3H] Example 69 of WO2017/153601, reference compound]						Kd ([2]; batch of aSyn fibrils of measurement A): 32 nM; Kd ([2]; second batch of aSyn fibrils, measurement B): 60 nM

— patent US20210252175A1, “NOVEL COMPOUNDS FOR DIAGNOSIS” (AC IMMUNE SA, priority 2018, published 2021)
